In ChEMBL document CHEMBL4411333, “Optimization of Fused Bicyclic Allosteric SHP2 Inhibitors” (J Med Chem, 2019):
Activity calls are given as the source filed them. No cut-off for these calls is given here.

Columns and labels:
[1] = biological target: T1, Tyrosine-protein phosphatase non-receptor type 11 (Homo sapiens, UniProt Q06124); experiment: Inhibition of SHP2 in human KYSE520 cells assessed as suppression of ERK phosphorylation after 2 hrs by AlphaScreen SureFire Phospho-ERK1/2 assay; format: cell-based
T1 sequence (Q06124 whole entry): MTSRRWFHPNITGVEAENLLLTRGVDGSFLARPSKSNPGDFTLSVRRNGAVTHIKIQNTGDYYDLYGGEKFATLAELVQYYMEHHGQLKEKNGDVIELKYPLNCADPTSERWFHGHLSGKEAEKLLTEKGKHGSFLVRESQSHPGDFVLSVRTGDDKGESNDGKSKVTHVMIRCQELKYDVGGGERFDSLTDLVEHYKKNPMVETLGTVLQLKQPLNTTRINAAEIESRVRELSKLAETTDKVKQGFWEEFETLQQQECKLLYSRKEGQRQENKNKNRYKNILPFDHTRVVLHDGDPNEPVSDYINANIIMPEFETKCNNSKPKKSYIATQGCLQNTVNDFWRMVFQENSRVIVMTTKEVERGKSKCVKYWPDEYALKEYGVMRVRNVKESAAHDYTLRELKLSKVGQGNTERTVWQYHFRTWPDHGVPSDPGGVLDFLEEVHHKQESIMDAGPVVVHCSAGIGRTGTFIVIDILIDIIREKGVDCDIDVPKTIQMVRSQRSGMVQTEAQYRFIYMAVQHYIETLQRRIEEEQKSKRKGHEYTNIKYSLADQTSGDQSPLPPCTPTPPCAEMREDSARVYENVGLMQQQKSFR

[2] = biological target: Voltage-gated inwardly rectifying potassium channel KCNH2 (Homo sapiens, UniProt Q12809)
KYSE-520 cell line = experiment: Antiproliferative activity against human KYSE520 cells after 5 days by Celltiter-Glo reagent-based assay; conditions: KYSE-520, 5 days
[3] = biological target: T1, Tyrosine-protein phosphatase non-receptor type 11; experiment: Inhibition of human 6His-tagged SHP2 (2 to 593 residues) expressed in Escherichia coli BL21 Star (DE3) using DiFMUP as substrate preincubated for 30 mins followed by substrate addition by fluorescence assay
[4] = Clearance in Sprague-Dawley rat at 1 mg/kg, iv or 5 mg/kg, po relative to hepatic extraction; format: ADME, organism-based; conditions: in vivo
[5] = Clearance in rat liver microsomes; format: ADME, Microsome; conditions: read-out: CLH
[6] = Half life in rat liver microsomes; format: ADME, Microsome
[7] = Volume of distribution in Sprague-Dawley rat at 1 mg/kg, iv or 5 mg/kg, po; format: ADME, organism-based; conditions: in vivo
[8] = Terminal half life in Sprague-Dawley rat at 1 mg/kg, iv or 5 mg/kg, po; format: ADME, organism-based; conditions: in vivo, read-out: beta t1/2 (converted)
[9] = Oral bioavailability in Sprague-Dawley rat at 5 mg/kg; format: ADME, organism-based; conditions: in vivo
[10] = biological target: T2, Tyrosine-protein phosphatase non-receptor type 11 (Homo sapiens) (UniProt Q06124); experiment: Inhibition of SHP2 (unknown origin) at 40 uM
T2 sequence (whole entry): T1 sequence (Q06124 whole entry)

[11] = biological target: T2, Tyrosine-protein phosphatase non-receptor type 11 (Homo sapiens); experiment: Stabilization of SHP2 (unknown origin) assessed as thermal denaturation by measuring change in melting temperature at 100 uM by differential scanning fluorimetry
Mus musculus [12] = organism: Mus musculus; conditions: 100 mg/kg
Mus musculus [13] = organism: Mus musculus; conditions: 100 mg/kg; remark: listed apart in the source

Chain of Voltage-gated inwardly rectifying potassium channel KCNH2 (Q12809 whole entry): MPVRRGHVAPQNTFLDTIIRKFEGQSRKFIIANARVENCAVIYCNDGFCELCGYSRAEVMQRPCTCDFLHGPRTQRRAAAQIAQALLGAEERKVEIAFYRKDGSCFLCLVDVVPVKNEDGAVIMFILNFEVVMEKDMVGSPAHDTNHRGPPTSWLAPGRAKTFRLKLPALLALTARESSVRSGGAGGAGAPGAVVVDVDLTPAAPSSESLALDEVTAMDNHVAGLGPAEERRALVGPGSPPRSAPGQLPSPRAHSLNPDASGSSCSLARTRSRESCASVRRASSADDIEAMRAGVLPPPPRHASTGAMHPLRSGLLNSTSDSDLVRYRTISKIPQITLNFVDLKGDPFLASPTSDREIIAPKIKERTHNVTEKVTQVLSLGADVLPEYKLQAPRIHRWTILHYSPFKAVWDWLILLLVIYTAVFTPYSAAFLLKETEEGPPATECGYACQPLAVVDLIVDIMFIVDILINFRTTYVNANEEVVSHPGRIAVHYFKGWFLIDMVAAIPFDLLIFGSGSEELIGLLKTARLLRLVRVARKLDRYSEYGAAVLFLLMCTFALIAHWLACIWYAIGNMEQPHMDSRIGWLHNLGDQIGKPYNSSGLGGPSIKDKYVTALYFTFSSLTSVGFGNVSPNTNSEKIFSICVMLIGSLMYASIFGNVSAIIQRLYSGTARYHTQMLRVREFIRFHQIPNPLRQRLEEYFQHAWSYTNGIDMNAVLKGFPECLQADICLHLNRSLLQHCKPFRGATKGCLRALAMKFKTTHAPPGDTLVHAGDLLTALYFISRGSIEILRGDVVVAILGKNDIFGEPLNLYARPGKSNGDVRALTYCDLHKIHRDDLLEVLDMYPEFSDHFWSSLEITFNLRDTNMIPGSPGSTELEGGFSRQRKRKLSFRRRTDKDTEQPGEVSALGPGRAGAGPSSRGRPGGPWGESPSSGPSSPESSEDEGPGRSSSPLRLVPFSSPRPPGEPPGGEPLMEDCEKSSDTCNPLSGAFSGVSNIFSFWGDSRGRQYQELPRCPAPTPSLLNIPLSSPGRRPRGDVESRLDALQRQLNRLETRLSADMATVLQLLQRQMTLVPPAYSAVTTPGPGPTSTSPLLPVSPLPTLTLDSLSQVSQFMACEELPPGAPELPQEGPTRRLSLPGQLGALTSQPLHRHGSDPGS

| SMILES | IC50 [1] [nM] | IC50 [2] [nM] | IC50 (KYSE-520 cell line) [nM] | further results |
| --- | --- | --- | --- | --- |
| C[C@@H]1OCC2(CCN(c3cnc4c(-c5cccc(Cl)c5Cl)c[nH]c4n3)CC2)[C@@H]1N | 484 | 7 | – | – |
| Cc1nc(N)ccc1-c1n[nH]c2nc(N3CCC4(CC3)CO[C@@H](C)[C@H]4N)n(C)c(=O)c12 | 38 | 6600 | 660 | – |
| Cn1c(N2CCC3(CCC[C@H]3N)CC2)nc2n[nH]c(-c3cccc(Cl)c3Cl)c2c1=O | 30 | 250 | 465 | IC50 [3]: 31 nM |
| C[C@@H]1OCC2(CCN(c3nc4[nH]nc(-c5ccnc(Cl)c5Cl)c4c(=O)n3C)CC2)[C@@H]1N | – | – | 2600 | – |
| C[C@@H]1OCC2(CCN(c3nc4[nH]nc(-c5ccnc(N)c5Cl)c4c(=O)n3C)CC2)[C@@H]1N | 103 | > 30000 | 1200 | IC50 [3]: 32 nM |
| C[C@@H]1OCC2(CCN(c3cnc4c(-c5cccc(Cl)c5Cl)n[nH]c4n3)CC2)[C@@H]1N | – | – | 460 | – |
| C[C@@H]1OCC2(CCN(c3nc4[nH]nc(-c5ccncc5)c4c(=O)n3C)CC2)[C@@H]1N | 129 | > 30000 | 1260 | – |
| CNc1nccc(-c2n[nH]c3nc(N4CCC5(CC4)CO[C@@H](C)[C@H]5N)n(C)c(=O)c23)c1Cl | 22 | > 30000 | 370 | IC50 [3]: 55 nM |
| C[C@@H]1OCC2(CCN(c3nc4[nH]nc(-c5ccnc(NC6CC6)c5Cl)c4c(=O)n3C)CC2)[C@@H]1N | – | – | 360 | CL [4]: 83%; microsomal CLint [5]: 26.1 µL/min/mg; half-life [6]: 0.887 h; Vd [7]: 3.9 L/kg; half-life [8]: 2.7 h; bioavailability [9]: 2% |
| C[C@@H]1OCC2(CCN(c3nc4[nH]nc(Sc5ccnc(N)c5Cl)c4c(=O)n3C)CC2)[C@@H]1N | 96 | > 30000 | 720 | – |
| Cn1c(N2CCC(C)(CN)CC2)nc2[nH]nc(-c3cccc(Cl)c3Cl)c2c1=O | – | – | 13500 | – |
| Cc1ccc(-c2cc(C(=O)O)c3c(-c4ccc(Br)cc4)n[nH]c3n2)cc1 | – | – | – | inhibition [10]: 30%; ΔTm [11]: 0.62 °C |
| CN(C)Cc1ccc(-c2cc3onc(-c4ccccc4Cl)c3c(=O)n2C)cc1 | – | – | – | inhibition [10]: 31%; ΔTm [11]: 0.67 °C |
| C[C@@H]1OCC2(CCN(c3nc4[nH]nc(-c5ccnc(NC6CCC6)c5Cl)c4c(=O)n3C)CC2)[C@@H]1N | 260 | 1900 | 380 | IC50 [3]: 350 nM |
| Cn1c(N2CCC3(CC2)COC[C@H]3N)nc2[nH]nc(-c3cccc(Cl)c3Cl)c2c1=O | 123 | – | 1730 | – |
| C[C@@H]1OCC2(CCN(c3nc4[nH]nc(-c5cccc(Cl)c5Cl)c4c(=O)n3C)CC2)[C@@H]1N | – | – | 167 | Vd [7]: 10.5 L/kg; half-life [8]: 4.6 h; bioavailability [9]: 51%; inhibition (Mus musculus [12]): Active; inhibition (Mus musculus [13]): Active |
